Key:
[1] = molecular target: T1, PLK4/SAK (Homo sapiens, UniProt O00444); assay: HotSpot kinase assay; type: biochemical; conditions: read-out: % Enzyme Activity (relative to DMSO controls)
T1 construct: purchased Reaction Biology Corporation

[2] = molecular target: T2, MARK4 (Homo sapiens, UniProt Q96L34); assay: HotSpot kinase assay; type: biochemical; conditions: read-out: % Enzyme Activity (relative to DMSO controls)
T2 construct: purchased Reaction Biology Corporation

[3] = molecular target: T3, FLT4/VEGFR3 (Homo sapiens, UniProt P35916); assay: HotSpot kinase assay; type: biochemical; conditions: read-out: % Enzyme Activity (relative to DMSO controls)
T3 construct: purchased Reaction Biology Corporation

[4] = molecular target: T4, PRKX (Homo sapiens, UniProt P51817); assay: HotSpot kinase assay; type: biochemical; conditions: read-out: % Enzyme Activity (relative to DMSO controls)
T4 construct: purchased Reaction Biology Corporation
T4 sequence (P51817 whole entry): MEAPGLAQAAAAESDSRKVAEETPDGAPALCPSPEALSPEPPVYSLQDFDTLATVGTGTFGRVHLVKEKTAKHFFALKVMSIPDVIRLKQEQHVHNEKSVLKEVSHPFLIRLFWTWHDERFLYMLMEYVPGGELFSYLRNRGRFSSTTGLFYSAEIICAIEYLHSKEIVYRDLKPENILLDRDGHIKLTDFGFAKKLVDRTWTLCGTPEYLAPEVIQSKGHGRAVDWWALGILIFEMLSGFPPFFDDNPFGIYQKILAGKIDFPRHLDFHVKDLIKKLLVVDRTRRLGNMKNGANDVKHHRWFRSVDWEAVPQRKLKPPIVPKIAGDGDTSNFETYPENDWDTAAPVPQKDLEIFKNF

[5] = molecular target: T5, JNK1 (Homo sapiens, UniProt P45983); assay: HotSpot kinase assay; type: biochemical; conditions: read-out: % Enzyme Activity (relative to DMSO controls)
T5 construct: purchased Reaction Biology Corporation

[6] = molecular target: T6, GRK3 (Homo sapiens, UniProt P35626); assay: HotSpot kinase assay; type: biochemical; conditions: read-out: % Enzyme Activity (relative to DMSO controls)
T6 construct: purchased Reaction Biology Corporation

[7] = molecular target: T7, AURORA C (Homo sapiens, UniProt Q9UQB9); assay: HotSpot kinase assay; type: biochemical; conditions: read-out: % Enzyme Activity (relative to DMSO controls)
T7 construct: purchased Reaction Biology Corporation
T7 sequence (Q9UQB9 whole entry): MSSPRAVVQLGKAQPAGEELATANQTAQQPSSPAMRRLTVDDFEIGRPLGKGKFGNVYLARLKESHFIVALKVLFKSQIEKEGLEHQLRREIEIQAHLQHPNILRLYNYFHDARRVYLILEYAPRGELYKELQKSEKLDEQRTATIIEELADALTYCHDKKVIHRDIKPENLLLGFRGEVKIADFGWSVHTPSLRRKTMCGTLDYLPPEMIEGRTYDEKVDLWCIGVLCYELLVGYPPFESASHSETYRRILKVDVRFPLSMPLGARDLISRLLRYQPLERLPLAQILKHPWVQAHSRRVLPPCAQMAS

[8] = molecular target: T8, CK1a1L (Homo sapiens, UniProt Q8N752); assay: HotSpot kinase assay; type: biochemical; conditions: read-out: % Enzyme Activity (relative to DMSO controls)
T8 construct: purchased Reaction Biology Corporation

[9] = molecular target: T9, ACK1 (Homo sapiens, UniProt Q07912); assay: HotSpot kinase assay; type: biochemical; conditions: read-out: % Enzyme Activity (relative to DMSO controls)
T9 construct: purchased Reaction Biology Corporation

[10] = molecular target: T10, ALK6/BMPR1B (Homo sapiens, UniProt O00238); assay: HotSpot kinase assay; type: biochemical; conditions: read-out: % Enzyme Activity (relative to DMSO controls)
T10 construct: purchased Reaction Biology Corporation
T10 sequence (O00238 14-502): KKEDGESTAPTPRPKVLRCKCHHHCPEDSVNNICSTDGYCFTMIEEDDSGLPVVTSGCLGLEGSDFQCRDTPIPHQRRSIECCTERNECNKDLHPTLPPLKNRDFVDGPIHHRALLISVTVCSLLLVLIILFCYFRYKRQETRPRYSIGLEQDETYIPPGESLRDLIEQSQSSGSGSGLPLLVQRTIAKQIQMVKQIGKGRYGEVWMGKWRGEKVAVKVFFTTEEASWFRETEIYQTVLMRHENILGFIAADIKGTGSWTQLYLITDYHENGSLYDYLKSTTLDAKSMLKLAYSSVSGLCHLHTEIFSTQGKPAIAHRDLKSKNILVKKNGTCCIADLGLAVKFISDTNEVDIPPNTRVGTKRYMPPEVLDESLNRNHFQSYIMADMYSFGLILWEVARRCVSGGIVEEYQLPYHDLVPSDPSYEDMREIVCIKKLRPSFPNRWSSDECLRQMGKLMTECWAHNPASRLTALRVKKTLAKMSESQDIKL

[11] = molecular target: T11, CK1d (Homo sapiens, UniProt P48730); assay: HotSpot kinase assay; type: biochemical; conditions: read-out: % Enzyme Activity (relative to DMSO controls)
T11 construct: purchased Reaction Biology Corporation
T11 sequence (P48730 whole entry): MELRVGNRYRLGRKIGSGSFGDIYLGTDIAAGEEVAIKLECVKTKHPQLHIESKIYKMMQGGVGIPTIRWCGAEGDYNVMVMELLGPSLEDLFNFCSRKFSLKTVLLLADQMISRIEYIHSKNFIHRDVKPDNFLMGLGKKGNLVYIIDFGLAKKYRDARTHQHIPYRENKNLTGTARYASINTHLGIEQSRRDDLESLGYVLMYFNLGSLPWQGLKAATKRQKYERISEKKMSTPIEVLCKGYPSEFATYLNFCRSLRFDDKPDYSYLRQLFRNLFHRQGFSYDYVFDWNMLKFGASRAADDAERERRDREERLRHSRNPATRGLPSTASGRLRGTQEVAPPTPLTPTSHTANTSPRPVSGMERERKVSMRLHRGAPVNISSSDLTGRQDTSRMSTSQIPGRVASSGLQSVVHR

[12] = molecular target: T12, PDK1/PDPK1 (Homo sapiens, UniProt O15530); assay: biochemical
T12 construct: purchased Reaction Biology Corporation
T12 sequence (O15530 1-556): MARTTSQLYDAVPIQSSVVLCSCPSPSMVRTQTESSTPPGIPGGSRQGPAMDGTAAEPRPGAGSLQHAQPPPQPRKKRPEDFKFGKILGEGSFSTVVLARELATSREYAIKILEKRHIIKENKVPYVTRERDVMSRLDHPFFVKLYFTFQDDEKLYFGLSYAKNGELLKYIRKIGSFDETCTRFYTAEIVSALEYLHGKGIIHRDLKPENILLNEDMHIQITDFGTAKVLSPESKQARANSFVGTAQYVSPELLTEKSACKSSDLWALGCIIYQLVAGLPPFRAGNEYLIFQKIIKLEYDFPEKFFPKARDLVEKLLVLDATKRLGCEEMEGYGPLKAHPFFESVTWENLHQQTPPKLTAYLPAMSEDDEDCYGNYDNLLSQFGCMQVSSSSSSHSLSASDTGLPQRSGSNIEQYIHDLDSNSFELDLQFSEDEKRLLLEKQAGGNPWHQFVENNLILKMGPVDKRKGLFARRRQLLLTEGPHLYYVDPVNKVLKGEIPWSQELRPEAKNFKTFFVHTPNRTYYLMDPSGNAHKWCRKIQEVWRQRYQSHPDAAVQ

[13] = molecular target: T13, ALK1/ACVRL1 (Homo sapiens, UniProt P37023); assay: HotSpot kinase assay; type: biochemical; conditions: read-out: % Enzyme Activity (relative to DMSO controls)
T13 construct: purchased Reaction Biology Corporation

[14] = molecular target: T14, NEK5 (Homo sapiens, UniProt Q6P3R8); assay: HotSpot kinase assay; type: biochemical; conditions: read-out: % Enzyme Activity (relative to DMSO controls)
T14 construct: purchased Reaction Biology Corporation
T14 sequence (Q6P3R8 whole entry): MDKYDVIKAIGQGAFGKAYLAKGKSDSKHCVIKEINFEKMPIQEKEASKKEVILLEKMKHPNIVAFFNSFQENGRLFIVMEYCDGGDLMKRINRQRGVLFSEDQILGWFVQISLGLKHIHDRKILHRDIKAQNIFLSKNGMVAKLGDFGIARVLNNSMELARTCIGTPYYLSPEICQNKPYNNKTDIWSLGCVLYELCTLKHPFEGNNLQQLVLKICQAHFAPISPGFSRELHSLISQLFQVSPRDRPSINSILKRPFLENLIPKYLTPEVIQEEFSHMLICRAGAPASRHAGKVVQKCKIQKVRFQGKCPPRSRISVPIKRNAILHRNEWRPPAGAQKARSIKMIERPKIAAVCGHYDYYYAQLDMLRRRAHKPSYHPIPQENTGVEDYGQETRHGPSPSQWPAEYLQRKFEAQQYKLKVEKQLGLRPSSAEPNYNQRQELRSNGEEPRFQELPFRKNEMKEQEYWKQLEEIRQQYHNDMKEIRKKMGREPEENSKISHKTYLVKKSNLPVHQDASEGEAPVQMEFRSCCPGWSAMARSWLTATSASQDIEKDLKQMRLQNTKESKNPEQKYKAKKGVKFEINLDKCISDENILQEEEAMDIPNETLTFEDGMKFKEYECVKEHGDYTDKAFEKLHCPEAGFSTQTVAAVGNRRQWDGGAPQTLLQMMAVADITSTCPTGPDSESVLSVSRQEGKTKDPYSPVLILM

[15] = molecular target: T15, RON/MST1R (Homo sapiens, UniProt Q04912); assay: HotSpot kinase assay; type: biochemical; conditions: read-out: % Enzyme Activity (relative to DMSO controls)
T15 construct: purchased Reaction Biology Corporation

[16] = molecular target: T16, AXL (Homo sapiens, UniProt P30530); assay: HotSpot kinase assay; type: biochemical; conditions: read-out: % Enzyme Activity (relative to DMSO controls)
T16 construct: purchased Reaction Biology Corporation

[17] = molecular target: T17, FGR (Homo sapiens, UniProt P09769); assay: HotSpot kinase assay; type: biochemical; conditions: read-out: % Enzyme Activity (relative to DMSO controls)
T17 construct: purchased Reaction Biology Corporation
T17 sequence (P09769 whole entry): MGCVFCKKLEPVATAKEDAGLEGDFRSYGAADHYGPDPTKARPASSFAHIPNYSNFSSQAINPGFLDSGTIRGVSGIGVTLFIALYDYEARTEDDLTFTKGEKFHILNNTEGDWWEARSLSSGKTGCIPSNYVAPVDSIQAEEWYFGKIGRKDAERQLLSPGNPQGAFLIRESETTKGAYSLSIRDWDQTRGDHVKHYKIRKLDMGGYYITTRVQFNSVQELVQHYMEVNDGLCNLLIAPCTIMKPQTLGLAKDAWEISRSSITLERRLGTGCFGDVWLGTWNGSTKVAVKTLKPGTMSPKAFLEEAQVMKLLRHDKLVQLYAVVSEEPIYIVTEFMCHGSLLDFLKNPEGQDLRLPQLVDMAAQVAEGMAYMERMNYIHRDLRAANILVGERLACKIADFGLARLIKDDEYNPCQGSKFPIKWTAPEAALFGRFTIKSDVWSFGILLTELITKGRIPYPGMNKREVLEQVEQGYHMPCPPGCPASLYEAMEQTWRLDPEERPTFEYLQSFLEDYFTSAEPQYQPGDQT

[18] = test system: HSV-2(G); assay: HSV plaque assay, HaCat cells; type: cell-based; conditions: Human alphaherpesvirus 2, HaCaT, read-out: inhibition of HSV-2 infection
Procedure: After 48 h incubation, plaques were counted by immunoassay using an anti–human IgG antibody peroxidase conjugate (PA1-86064, Thermo Fisher)[33]. […] Western blots were prepared and probed for gD as a marker of bound virus and β-actin as a control.

[19] = molecular target: T18, ERN1/IRE1 (Homo sapiens, UniProt O75460); assay: HotSpot kinase assay; type: biochemical; conditions: read-out: % Enzyme Activity (relative to DMSO controls)
T18 construct: purchased Reaction Biology Corporation

[20] = molecular target: T19, PAK4 (Homo sapiens, UniProt O96013); assay: HotSpot kinase assay; type: biochemical; conditions: read-out: % Enzyme Activity (relative to DMSO controls)
T19 construct: purchased Reaction Biology Corporation

[21] = molecular target: T20, CAMK2a (Homo sapiens, UniProt Q9UQM7); assay: HotSpot kinase assay; type: biochemical; conditions: read-out: % Enzyme Activity (relative to DMSO controls)
T20 construct: purchased Reaction Biology Corporation
T20 sequence (Q9UQM7 whole entry): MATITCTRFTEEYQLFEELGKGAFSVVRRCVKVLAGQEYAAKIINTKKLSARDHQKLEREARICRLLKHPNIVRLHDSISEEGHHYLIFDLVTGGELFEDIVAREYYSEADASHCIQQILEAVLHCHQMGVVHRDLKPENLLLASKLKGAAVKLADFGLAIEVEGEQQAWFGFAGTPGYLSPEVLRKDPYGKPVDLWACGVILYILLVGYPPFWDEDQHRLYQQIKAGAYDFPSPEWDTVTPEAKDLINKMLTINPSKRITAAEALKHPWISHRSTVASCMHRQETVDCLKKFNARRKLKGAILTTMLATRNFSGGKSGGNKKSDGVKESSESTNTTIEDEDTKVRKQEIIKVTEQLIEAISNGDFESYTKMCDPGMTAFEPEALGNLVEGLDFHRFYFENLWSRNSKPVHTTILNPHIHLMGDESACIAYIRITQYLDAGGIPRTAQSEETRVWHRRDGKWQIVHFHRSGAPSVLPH

[22] = molecular target: T21, SIK2 (Homo sapiens, UniProt Q9H0K1); assay: HotSpot kinase assay; type: biochemical; conditions: read-out: % Enzyme Activity (relative to DMSO controls)
T21 construct: purchased Reaction Biology Corporation
T21 sequence (Q9H0K1 whole entry): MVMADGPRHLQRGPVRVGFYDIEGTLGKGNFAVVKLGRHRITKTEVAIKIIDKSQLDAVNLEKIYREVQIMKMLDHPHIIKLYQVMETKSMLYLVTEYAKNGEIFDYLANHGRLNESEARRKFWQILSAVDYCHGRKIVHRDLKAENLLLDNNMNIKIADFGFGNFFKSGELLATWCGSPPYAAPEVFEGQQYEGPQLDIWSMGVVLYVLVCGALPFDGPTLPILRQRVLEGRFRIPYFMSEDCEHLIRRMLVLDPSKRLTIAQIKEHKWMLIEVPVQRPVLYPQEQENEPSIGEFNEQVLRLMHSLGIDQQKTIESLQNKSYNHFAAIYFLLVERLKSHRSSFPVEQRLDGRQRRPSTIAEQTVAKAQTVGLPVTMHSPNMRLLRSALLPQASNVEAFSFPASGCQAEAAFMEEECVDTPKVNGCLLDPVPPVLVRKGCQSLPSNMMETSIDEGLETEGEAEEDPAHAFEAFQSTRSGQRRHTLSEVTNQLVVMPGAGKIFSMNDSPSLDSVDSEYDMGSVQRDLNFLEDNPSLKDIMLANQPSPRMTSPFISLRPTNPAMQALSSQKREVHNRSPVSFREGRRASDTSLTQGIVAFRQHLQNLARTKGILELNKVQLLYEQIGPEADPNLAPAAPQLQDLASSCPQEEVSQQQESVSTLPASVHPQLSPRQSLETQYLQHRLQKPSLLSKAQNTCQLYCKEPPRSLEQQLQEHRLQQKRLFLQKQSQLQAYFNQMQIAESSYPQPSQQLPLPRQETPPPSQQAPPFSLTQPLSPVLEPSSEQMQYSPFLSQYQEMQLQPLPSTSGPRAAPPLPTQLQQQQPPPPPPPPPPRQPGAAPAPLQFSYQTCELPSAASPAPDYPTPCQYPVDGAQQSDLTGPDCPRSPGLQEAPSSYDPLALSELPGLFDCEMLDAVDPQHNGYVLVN

[23] = molecular target: T22, ALK2/ACVR1 (Homo sapiens, UniProt Q04771); assay: HotSpot kinase assay; type: biochemical; conditions: read-out: % Enzyme Activity (relative to DMSO controls)
T22 construct: purchased Reaction Biology Corporation

[24] = test system: Akt, PDPK1, PLCγ
[25] = molecular target: T23, CDK4/cyclin D1 (Homo sapiens, UniProt P11802); assay: HotSpot kinase assay; type: biochemical; conditions: read-out: % Enzyme Activity (relative to DMSO controls)
T23 construct: purchased Reaction Biology Corporation

[26] = molecular target: T24, CSK (Homo sapiens, UniProt P41240); assay: HotSpot kinase assay; type: biochemical; conditions: read-out: % Enzyme Activity (relative to DMSO controls)
T24 construct: purchased Reaction Biology Corporation

[27] = molecular target: T25, DCAMKL1 (Homo sapiens, UniProt O15075); assay: HotSpot kinase assay; type: biochemical; conditions: read-out: % Enzyme Activity (relative to DMSO controls)
T25 construct: purchased Reaction Biology Corporation

[28] = molecular target: T26, PIM3 (Homo sapiens, UniProt Q86V86); assay: HotSpot kinase assay; type: biochemical; conditions: read-out: % Enzyme Activity (relative to DMSO controls)
T26 construct: purchased Reaction Biology Corporation

[29] = molecular target: T27, MAPKAPK2 (Homo sapiens, UniProt P49137); assay: HotSpot kinase assay; type: biochemical; conditions: read-out: % Enzyme Activity (relative to DMSO controls)
T27 construct: purchased Reaction Biology Corporation

[30] = molecular target: T28, CAMK2g (Homo sapiens, UniProt Q13555); assay: HotSpot kinase assay; type: biochemical; conditions: read-out: % Enzyme Activity (relative to DMSO controls)
T28 construct: purchased Reaction Biology Corporation

[31] = molecular target: T29, CDK1/cyclin E (Homo sapiens, UniProt P06493); assay: HotSpot kinase assay; type: biochemical; conditions: read-out: % Enzyme Activity (relative to DMSO controls)
T29 construct: purchased Reaction Biology Corporation
T29 sequence (P06493 whole entry): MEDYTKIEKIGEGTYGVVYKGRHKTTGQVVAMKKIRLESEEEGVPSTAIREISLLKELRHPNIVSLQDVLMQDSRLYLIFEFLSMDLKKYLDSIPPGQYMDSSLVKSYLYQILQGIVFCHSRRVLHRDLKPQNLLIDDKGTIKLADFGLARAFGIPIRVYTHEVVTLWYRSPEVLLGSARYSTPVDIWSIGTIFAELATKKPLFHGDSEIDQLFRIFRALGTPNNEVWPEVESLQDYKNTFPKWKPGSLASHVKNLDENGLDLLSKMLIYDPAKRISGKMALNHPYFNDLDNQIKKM
T29 sequence (P24864 whole entry, further chain): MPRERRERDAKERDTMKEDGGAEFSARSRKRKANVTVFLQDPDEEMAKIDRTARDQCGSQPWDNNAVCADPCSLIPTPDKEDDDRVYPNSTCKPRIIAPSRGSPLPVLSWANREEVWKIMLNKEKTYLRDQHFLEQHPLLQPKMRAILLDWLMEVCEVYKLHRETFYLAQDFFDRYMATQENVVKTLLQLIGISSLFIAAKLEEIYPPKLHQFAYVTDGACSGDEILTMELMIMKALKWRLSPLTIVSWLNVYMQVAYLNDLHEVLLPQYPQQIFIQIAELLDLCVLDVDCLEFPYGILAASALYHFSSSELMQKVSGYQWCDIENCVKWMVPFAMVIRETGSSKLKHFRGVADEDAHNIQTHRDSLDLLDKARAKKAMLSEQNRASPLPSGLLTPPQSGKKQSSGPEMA

[32] = molecular target: T30, SSTK/TSSK6 (Homo sapiens, UniProt Q9BXA6); assay: HotSpot kinase assay; type: biochemical; conditions: read-out: % Enzyme Activity (relative to DMSO controls)
T30 construct: purchased Reaction Biology Corporation

[33] = molecular target: T31, IRR/INSRR (Homo sapiens, UniProt P14616); assay: HotSpot kinase assay; type: biochemical; conditions: read-out: % Enzyme Activity (relative to DMSO controls)
T31 construct: purchased Reaction Biology Corporation

CO[C@@H]1[C@H](N(C)C(=O)CCC(=O)NCc2cn(CCCS(=O)(=O)O)nn2)C[C@H]2O[C@]1(C)n1c3ccccc3c3c4c(c5c6ccccc6n2c5c31)C(=O)NC4 [CIMSS]
remaining activity at 10 µM [1]: 6.73%
remaining activity at 10 µM [2]: 0.77%
remaining activity at 10 µM [3]: 1.97%
remaining activity at 10 µM [4]: 9.56%
remaining activity at 10 µM [5]: 24.8%
remaining activity at 10 µM [6]: 46.9%
remaining activity at 10 µM [7]: 2.59%
remaining activity at 10 µM [8]: 82.8%
remaining activity at 10 µM [9]: 7.33%
remaining activity at 10 µM [10]: 88.3%
remaining activity at 10 µM [11]: 106%
IC50 ([12]; Supplementary Table 1, PDPK1, read-out: IC50 (Molar concentration)): 0.278 nM
remaining activity at 10 µM ([12]; read-out: % Enzyme Activity (relative to DMSO controls), 10µM): 4.24%
inhibition at 10 µM ([12]; read-out: inhibition of PDPK1): > 75%
remaining activity at 10 µM [13]: 70%
remaining activity at 10 µM [14]: 6.56%
remaining activity at 10 µM [15]: 25.1%
remaining activity at 10 µM [16]: 3.61%
remaining activity at 10 µM [17]: 1.68%
inhibition at 10 µM [18]: > 75%
remaining activity at 10 µM [19]: 8.49%
remaining activity at 10 µM [20]: 7.78%
remaining activity at 10 µM [21]: 1.36%
remaining activity at 10 µM [22]: 1.49%
remaining activity at 10 µM [23]: 72.7%
levels of phosphorylated Akt (serine 473 and threonine 308) in non-permeabilized cells ([24]; 10µM): reduce levels
phosphorylation of PDPK1 and PLCγ ([24]; 10 µM, 15 and 30 min following viral infection): inhibited
remaining activity at 10 µM [25]: 68.8%
remaining activity at 10 µM [26]: 2.41%
remaining activity at 10 µM [27]: 83.7%
remaining activity at 10 µM [28]: 2.51%
remaining activity at 10 µM [29]: 69.9%
remaining activity at 10 µM [30]: 1.25%
remaining activity at 10 µM [31]: 18%
remaining activity at 10 µM [32]: 95.7%
remaining activity at 10 µM [33]: 4.68%

From PMC9569420 (Communications Biology, 2022)
